From US10760110B2, “Antibiotic testing and screening system” (priority 2017, dated 2020)
In brackets after ≈: the same amount, converted by molar mass. Where two headings read alike, the source gives them in different places.

Assays:
Conditions in all cases: Klebsiella pneumoniae
[1] = system: K. pneumoniae NVT1001 ΔramRΔompK35/36 mutant and its revertants; test: Etest MIC, ΔramRΔompK35/36 mutant and its revertants (Table 7); type: cell-based
[2] = system: K. pneumoniae NVT1001 strains with carbapenemase plasmids; test: Etest MIC of β-lactams, OmpK35/36 loss, ΔramR and/or carbapenemase (Table 9); type: cell-based, Klebsiella pneumoniae
Summary of the method: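 Etest MICs, with values between standard dilutions rounded up to the next two-fold step, were measured in K. pneumoniae NVT1001 carrying PCR-cloned resistance genes on pACYC177 or pACYC184 plasmids. Interpretation used CLSI 2017 breakpoints, CLSI 2015 for cephalothin and EUCAST 2017 for moxifloxacin. For the blaOXA-48 strain, ceftazidime and cefotaxime were additionally tested by CLSI broth microdilution.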

[3] = system: K. pneumoniae NVT1001 and its ΔompK35/36 and/or ΔramR mutants; test: Etest MIC, OmpK35/36 loss and AcrAB-TolC overexpression (ΔramR) strains (Table 6); type: cell-based, Klebsiella pneumoniae
Summary of the method: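 Etest MICs against K. pneumoniae NVT1001 and its ΔompK35/36 and/or ΔramR mutants, rounded up to the next two-fold value. For NVT1001 carrying pACYC177-blaOXA-48, ceftazidime and cefotaxime MICs by CLSI broth microdilution, interpreted with CLSI 2017 breakpoints.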

C[C@@H](O)[C@H]1C(=O)N2C(C(=O)O)=C(S[C@@H]3CN[C@H](C(=O)Nc4cccc(C(=O)O)c4)C3)[C@H](C)[C@H]12 [Ertapenem]
MIC ([1]; ΔramRΔompK35/36::ompK35/36 revertant): 0.125 µg/mL
MIC ([1]; ΔramRΔompK35/36::ompK35 revertant): 4 µg/mL
MIC ([1]; ΔramRΔompK35/36::ompK36 revertant): 0.125 µg/mL
MIC ([1]; ΔramRΔompK35/36::ramR revertant): 1 µg/mL
MIC ([1]; ΔramRΔompK35/36::ramR::ompK35/36 revertant): 0.015 µg/mL
MIC ([1]; ΔramRΔompK35/36::ramR::ompK35 revertant): 0.03 µg/mL
MIC ([1]; ΔramRΔompK35/36::ramR::ompK36 revertant): 0.03 µg/mL
MIC ([1]; ΔramRΔompK35/36 mutant): 4 µg/mL
MIC ([2]; IMP-8 on pACYC177, WT (NVT1001), read-out: MIC): 2 µg/mL
MIC ([2]; IMP-8 on pACYC177, Δ35 (ΔompK35 mutant)): 4 µg/mL
MIC ([2]; IMP-8 on pACYC177, Δ35/36 (ΔompK35/36 mutant)): > 32 µg/mL
MIC ([2]; IMP-8 on pACYC177, Δ36 (ΔompK36 mutant)): 2 µg/mL
MIC ([2]; IMP-8 on pACYC177, ΔramR mutant): 4 µg/mL
MIC ([2]; IMP-8 on pACYC177, ΔramRΔ35 (ΔramRΔompK35 mutant)): 4 µg/mL
MIC ([2]; IMP-8 on pACYC177, ΔramRΔ35/36 (ΔramRΔompK35/36 mutant)): > 32 µg/mL
MIC ([2]; IMP-8 on pACYC177, ΔramRΔ36 (ΔramRΔompK36 mutant)): > 32 µg/mL
MIC ([2]; KPC-2 on pACYC177, WT (NVT1001), read-out: MIC): 32 µg/mL
MIC ([2]; KPC-2 on pACYC177, Δ35 (ΔompK35 mutant)): 32 µg/mL
MIC ([2]; KPC-2 on pACYC177, Δ35/36 (ΔompK35/36 mutant)): > 32 µg/mL
MIC ([2]; KPC-2 on pACYC177, Δ36 (ΔompK36 mutant)): 32 µg/mL
MIC ([2]; KPC-2 on pACYC177, ΔramR mutant): > 32 µg/mL
MIC ([2]; KPC-2 on pACYC177, ΔramRΔ35 (ΔramRΔompK35 mutant)): > 32 µg/mL
MIC ([2]; KPC-2 on pACYC177, ΔramRΔ35/36 (ΔramRΔompK35/36 mutant)): > 32 µg/mL
MIC ([2]; KPC-2 on pACYC177, ΔramRΔ36 (ΔramRΔompK36 mutant)): > 32 µg/mL
MIC ([2]; KPC-3 on pACYC177, WT (NVT1001), read-out: MIC): 32 µg/mL
MIC ([2]; KPC-3 on pACYC177, Δ35 (ΔompK35 mutant)): 32 µg/mL
MIC ([2]; KPC-3 on pACYC177, Δ35/36 (ΔompK35/36 mutant)): > 32 µg/mL
MIC ([2]; KPC-3 on pACYC177, Δ36 (ΔompK36 mutant)): 32 µg/mL
MIC ([2]; KPC-3 on pACYC177, ΔramR mutant): 32 µg/mL
MIC ([2]; KPC-3 on pACYC177, ΔramRΔ35 (ΔramRΔompK35 mutant)): 32 µg/mL
MIC ([2]; KPC-3 on pACYC177, ΔramRΔ35/36 (ΔramRΔompK35/36 mutant)): > 32 µg/mL
MIC ([2]; KPC-3 on pACYC177, ΔramRΔ36 (ΔramRΔompK36 mutant)): > 32 µg/mL
MIC ([2]; NDM-1 on pACYC177, WT (NVT1001), read-out: MIC): 32 µg/mL
MIC ([2]; NDM-1 on pACYC177, Δ35 (ΔompK35 mutant)): > 32 µg/mL
MIC ([2]; NDM-1 on pACYC177, Δ35/36 (ΔompK35/36 mutant)): > 32 µg/mL
MIC ([2]; NDM-1 on pACYC177, Δ36 (ΔompK36 mutant)): > 32 µg/mL
MIC ([2]; NDM-1 on pACYC177, ΔramR mutant): > 32 µg/mL
MIC ([2]; NDM-1 on pACYC177, ΔramRΔ35 (ΔramRΔompK35 mutant)): > 32 µg/mL
MIC ([2]; NDM-1 on pACYC177, ΔramRΔ35/36 (ΔramRΔompK35/36 mutant)): > 32 µg/mL
MIC ([2]; NDM-1 on pACYC177, ΔramRΔ36 (ΔramRΔompK36 mutant)): > 32 µg/mL
MIC ([2]; OXA-48 on pACYC177, WT (NVT1001), read-out: MIC): 4 µg/mL
MIC ([2]; OXA-48 on pACYC177, Δ35 (ΔompK35 mutant)): 8 µg/mL
MIC ([2]; OXA-48 on pACYC177, Δ35/36 (ΔompK35/36 mutant)): > 32 µg/mL
MIC ([2]; OXA-48 on pACYC177, Δ36 (ΔompK36 mutant)): 8 µg/mL
MIC ([2]; OXA-48 on pACYC177, ΔramR mutant): 8 µg/mL
MIC ([2]; OXA-48 on pACYC177, ΔramRΔ35 (ΔramRΔompK35 mutant)): 8 µg/mL
MIC ([2]; OXA-48 on pACYC177, ΔramRΔ35/36 (ΔramRΔompK35/36 mutant)): > 32 µg/mL
MIC ([2]; OXA-48 on pACYC177, ΔramRΔ36 (ΔramRΔompK36 mutant)): > 32 µg/mL
MIC ([2]; VIM-1 on pACYC177, WT (NVT1001), read-out: MIC): 2 µg/mL
MIC ([2]; VIM-1 on pACYC177, Δ35 (ΔompK35 mutant)): 4 µg/mL
MIC ([2]; VIM-1 on pACYC177, Δ35/36 (ΔompK35/36 mutant)): > 32 µg/mL
MIC ([2]; VIM-1 on pACYC177, Δ36 (ΔompK36 mutant)): 2 µg/mL
MIC ([2]; VIM-1 on pACYC177, ΔramR mutant): 4 µg/mL
MIC ([2]; VIM-1 on pACYC177, ΔramRΔ35 (ΔramRΔompK35 mutant)): 4 µg/mL
MIC ([2]; VIM-1 on pACYC177, ΔramRΔ35/36 (ΔramRΔompK35/36 mutant)): > 32 µg/mL
MIC ([2]; VIM-1 on pACYC177, ΔramRΔ36 (ΔramRΔompK36 mutant)): > 32 µg/mL
MIC ([2]; no supplemental plasmid, WT (NVT1001), read-out: MIC): 0.015 µg/mL
MIC ([2]; no supplemental plasmid, Δ35 (ΔompK35 mutant)): 0.03 µg/mL
MIC ([2]; no supplemental plasmid, Δ35/36 (ΔompK35/36 mutant)): 2 µg/mL
MIC ([2]; no supplemental plasmid, Δ36 (ΔompK36 mutant)): 0.03 µg/mL
MIC ([2]; no supplemental plasmid, ΔramR mutant): 0.125 µg/mL
MIC ([2]; no supplemental plasmid, ΔramRΔ35 (ΔramRΔompK35 mutant)): 0.125 µg/mL
MIC ([2]; no supplemental plasmid, ΔramRΔ35/36 (ΔramRΔompK35/36 mutant)): 4 µg/mL
MIC ([2]; no supplemental plasmid, ΔramRΔ36 (ΔramRΔompK36 mutant)): 4 µg/mL
MIC ([3]; WT, NVT1001, read-out: MIC): 0.015 µg/mL (≈ 0.0315 µM)
MIC ([3]; Δ35, ΔompK35 mutant): 0.03 µg/mL (≈ 0.0631 µM)
MIC ([3]; Δ35/36, ΔompK35/36 mutant): 2 µg/mL (≈ 4.21 µM)
MIC ([3]; Δ36, ΔompK36 mutant): 0.03 µg/mL (≈ 0.0631 µM)
MIC ([3]; ΔramR mutant): 0.125 µg/mL (≈ 0.263 µM)
MIC ([3]; ΔramRΔ35, ΔramRΔompK35 mutant): 0.125 µg/mL (≈ 0.263 µM)
MIC ([3]; ΔramRΔ35/36, ΔramRΔompK35/36 mutant): 4 µg/mL (≈ 8.41 µM)
MIC ([3]; ΔramRΔ36, ΔramRΔompK36 mutant): 4 µg/mL (≈ 8.41 µM)
